The text below walks through data of US8435986B2, “Bicyclic traizole derivatives for treating of tumors” (Merck Patent Gesellschaft mit beschrankter Haftung, priority 2008, dated 2013).

Counter-ions that a name gives are not always drawn.

The target of assay [1] is T1, Met kinase (Homo sapiens, UniProt P08581). Put plainly: Met kinase inhibition, cellular assay. In kind it is cell-based. Conditions: read-out: Cellular assay IC50 (cell).
Target sequence in this assay (P08581 25-1390): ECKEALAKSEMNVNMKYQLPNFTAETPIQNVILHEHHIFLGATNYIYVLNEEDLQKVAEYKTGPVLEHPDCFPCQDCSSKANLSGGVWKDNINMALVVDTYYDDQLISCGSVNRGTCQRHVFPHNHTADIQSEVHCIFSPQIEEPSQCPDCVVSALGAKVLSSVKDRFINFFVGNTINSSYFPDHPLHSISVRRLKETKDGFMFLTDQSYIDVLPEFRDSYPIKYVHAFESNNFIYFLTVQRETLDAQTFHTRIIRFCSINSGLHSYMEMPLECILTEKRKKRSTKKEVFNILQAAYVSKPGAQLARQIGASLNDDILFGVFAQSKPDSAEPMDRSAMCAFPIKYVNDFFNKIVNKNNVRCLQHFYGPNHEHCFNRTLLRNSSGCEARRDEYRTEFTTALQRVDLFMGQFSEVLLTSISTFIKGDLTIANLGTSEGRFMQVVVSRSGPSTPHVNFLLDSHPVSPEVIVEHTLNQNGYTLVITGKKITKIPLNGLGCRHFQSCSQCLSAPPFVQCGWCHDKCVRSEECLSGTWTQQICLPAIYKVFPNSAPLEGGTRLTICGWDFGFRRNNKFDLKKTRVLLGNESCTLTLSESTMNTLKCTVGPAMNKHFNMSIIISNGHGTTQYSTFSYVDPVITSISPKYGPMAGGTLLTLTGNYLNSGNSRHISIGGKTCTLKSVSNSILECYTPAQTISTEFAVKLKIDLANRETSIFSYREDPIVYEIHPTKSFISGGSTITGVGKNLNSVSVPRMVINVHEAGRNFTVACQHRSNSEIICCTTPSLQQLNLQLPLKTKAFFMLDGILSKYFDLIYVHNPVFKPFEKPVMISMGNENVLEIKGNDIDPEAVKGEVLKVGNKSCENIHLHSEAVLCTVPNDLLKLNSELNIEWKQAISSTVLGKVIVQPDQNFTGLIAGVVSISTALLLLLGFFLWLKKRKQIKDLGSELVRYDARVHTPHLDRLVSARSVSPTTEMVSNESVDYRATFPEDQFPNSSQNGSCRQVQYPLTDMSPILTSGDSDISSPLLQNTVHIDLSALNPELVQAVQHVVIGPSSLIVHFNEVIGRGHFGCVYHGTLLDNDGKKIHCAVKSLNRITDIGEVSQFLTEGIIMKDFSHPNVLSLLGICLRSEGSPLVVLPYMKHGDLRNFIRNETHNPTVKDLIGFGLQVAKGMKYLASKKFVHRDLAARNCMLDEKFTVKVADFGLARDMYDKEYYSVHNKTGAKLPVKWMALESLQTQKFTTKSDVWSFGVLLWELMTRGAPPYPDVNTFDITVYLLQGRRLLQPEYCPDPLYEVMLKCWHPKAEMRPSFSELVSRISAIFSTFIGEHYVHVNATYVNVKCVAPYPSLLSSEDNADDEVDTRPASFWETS
Assay [2] concerns the target T1, Met kinase. Kind of assay: Met kinase inhibition, biochemical assay (flashplate method). Also noted: 6His (N); purchased Upstate 14-526; host or cells: Sf21 insect cells (S. frugiperda), baculovirus. The conditions noted are these: read-out: Biochemical assay IC50 (enzyme). The text has this: Measurement of Met Kinase Activity
According to the manufacturer's data (Met, active, Upstate, catalogue No. 14-526), Met kinase is expressed for the purposes of protein production in insect cells (Sf21; S. frugiperda) and subsequent affinity-chromatographic purification as “N-terminal 6His-tagged” recombinant human protein in a baculovirus expression vector.
Flashplate Method (Met Kinase)
The test plates used are 96-well Flashplate® microtitre plates from Perkin Elmer (Cat. No. SMP200). The components of the kinase reaction described below are pipetted into the assay plate. The Met kinase and the substrate poly Ala-Glu-Lys-Tyr, (pAGLT, 6:2:5:1), are incubated for 3 hrs at room temperature with radioactively labelled ^33P-ATP in the presence and absence of test substances in a total volume of 100 μl. The reaction is terminated using 150 μl of a 60 mM EDTA solution. After incubation for a further 30 min at room temperature, the supernatants are filtered off with suction, and the wells are washed three times with 200 μl of 0.9% NaCl solution each time. The measurement of the bound radioactivity is carried out by means of a scintillation measuring instrument (Topcount NXT, Perkin-Elmer).
The full value used is the inhibitor-free kinase reaction. This should be approximately in the range 6000-9000 cpm. The pharmacological zero value used is staurosporin in a final concentration of 0.1 mM. The inhibitory values (IC50) are determined using the RS1_MTS program.
Kinase reaction conditions per well:
10 μl of substance to be tested in assay buffer with 10% of DMSO
10 μl of ATP (final concentration 1 μM cold, 0.35 μCi of ^33P-ATP)
50 μl of Met kinase/substrate mixture in assay buffer; • (10 ng of enzyme/well, 50 ng of pAGLT/well) • Solutions used: • Assay buffer: • 50 mM HEPES • 3 mM magnesium chloride • 3 μM sodium orthovanadate • 3 mM manganese(II) chloride • 1 mM dithiothreitol (DTT) • pH=7.5 (to be set using sodium hydroxide) • Stop solution: • 60 mM Titriplex III (EDTA) • ^33P-ATP: Perkin-Elmer; • Met kinase: Upstate, Cat. No. 14-526, Stock 1 μg/10 μl; spec. activity 954 U/mg; • Poly-Ala-Glu-Lys-Tyr, 6:2:5:1: Sigma Cat. No. P1152 In-Vivo Tests
Target sequence in this assay (P08581 974-1390 limits assumed): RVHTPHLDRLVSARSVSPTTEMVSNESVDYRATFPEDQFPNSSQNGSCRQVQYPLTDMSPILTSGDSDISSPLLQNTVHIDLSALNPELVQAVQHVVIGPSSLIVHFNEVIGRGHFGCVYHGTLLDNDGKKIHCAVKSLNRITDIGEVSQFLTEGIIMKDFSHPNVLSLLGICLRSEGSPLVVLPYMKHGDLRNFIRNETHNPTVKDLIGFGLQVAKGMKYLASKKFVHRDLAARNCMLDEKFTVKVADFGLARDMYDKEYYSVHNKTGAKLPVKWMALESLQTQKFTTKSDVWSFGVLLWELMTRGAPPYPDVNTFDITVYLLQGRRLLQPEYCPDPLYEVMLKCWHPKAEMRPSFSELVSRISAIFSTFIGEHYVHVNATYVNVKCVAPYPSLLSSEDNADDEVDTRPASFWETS

For orientation: IC50 means the concentration at which inhibition is half-maximal. Regarding `Brc1cnc2nnn(Cc3cccc(-c4ncc(OCCN5CCOCC5)cn4)c3)c2n1` [Compound A1, 6-bromo-1-{3-[5-(2-morpholin-4-ylethoxy)pyrimidin-2-yl]benzyl}-1H-1,2,3-triazolo[4,5-b]-pyrazine], at Met kinase [1], the IC50 lay in the range of 1 to 100 nM.
Take `Cn1cc(-c2cnc3nnn(Cc4cccc(-c5ncc(OCCN6CCOCC6)cn5)c4)c3n2)cn1` [Compound A2, 6-(1-methyl-1H-pyrazol-4-yl)-1-{3-[5-(2-morpholin-4-ylethoxy)-pyrimidin-2-yl]benzyl}-1H-1,2,3-triazolo[4,5-b]pyrazine]: the IC50 at Met kinase [2] and on Met kinase [1] was 1 to 100 nM throughout.
As to `c1cc(Cn2nnc3ccccc32)cc(-c2ncc(OCCN3CCOCC3)cn2)c1` [Compound A3, 1-{3-[5-(2-morpholin-4-ylethoxy)pyrimidin-2-yl]benzyl}-1H-benzotriazole], the concentration for half-maximal inhibition (IC50) fell in the range of 1 to 100 nM at Met kinase [2] and 100 to 10000 nM on Met kinase [1].
In the same order, the values of `Cn1cc(-c2cnc3nnn(Cc4cccc(-c5ncc(OC6CCNCC6)cn5)c4)c3n2)cn1` [Compound A6] are 1 to 100 nM and 1 to 100 nM.
In the same order, the values of `Cn1cc(-c2cnc3nnn(Cc4cccc(-c5ncc(OCC6CCNCC6)cn5)c4)c3n2)cn1` [Compound A9] are 1 to 100 nM and 1 to 100 nM.
Take `Cn1cc(-c2cnc3nnn(Cc4cccc(-c5ncc(-c6cnn(CCN7CCCC7)c6)cn5)c4)c3n2)cn1` [Compound A24, 6-(1-methyl-1H-pyrazol-4-yl)-1-(3-{5-[1-(2-pyrrolidin-1-yl-ethyl)-1H-pyrazol-4-yl]pyrimidin-2-yl}benzyl)-1H-1,2,3-triazolo[4,5-b]-pyrazine hydrochloride]: the IC50 at Met kinase [2] and on Met kinase [1] was 1 to 100 nM in each case.
With `N#Cc1cccc(-c2cnc3nnn(Cc4cccc(-c5ncc(OC6CCNCC6)cn5)c4)c3n2)c1` [Compound A27], the concentration for half-maximal inhibition (IC50) at Met kinase [2] and at Met kinase [1] was 1 to 100 nM in each case.
On to `N#Cc1cccc(-c2cnc3nnn(Cc4cccc(-c5ncc(OCC6CCNCC6)cn5)c4)c3n2)c1` [Compound A30], for which the IC50 at Met kinase [2] and at Met kinase [1] was 1 to 100 nM throughout.
Turning to `Fc1ccc2nnn(Cc3cccc(-c4ncc(OCCN5CCOCC5)cn4)c3)c2c1F` [Compound A46], the half-inhibitory concentration (IC50) on Met kinase [2] and on Met kinase [1] was 1 to 100 nM throughout.
As for `Clc1ccc2nnn(Cc3cccc(-c4ncc(OCCN5CCOCC5)cn4)c3)c2n1` [Compound A48, 5-chloro-3-{3-[5-(2-morpholin-4-ylethoxy)pyrimidin-2-yl]-benzyl}-3H-1,2,3-triazolo[4,5-b]pyridine], the 50% inhibitory concentration (IC50) is 1 to 100 nM at Met kinase [2] and 100 to 10000 nM at Met kinase [1].
For `Brc1cnc(-c2cccc(Cn3nnc4ncc(Br)nc43)c2)nc1` [Compound B1, 6-bromo-1-[3-(5-bromopyrimidin-2-yl)benzyl]-1H-1,2,3-triazolo[4,5-b]pyrazine] the same measures were 1 to 100 nM and 100 to 10000 nM.
In the same order, the values of `Cn1cc(Oc2cnc3nnn(Cc4cccc(-c5ncc(Br)cn5)c4)c3n2)cn1` [Compound B5, 1-[3-(5-bromopyrimidin-2-yl)benzyl]-6-(1-methyl-1H-pyrazol-4-yloxy)-1H-1,2,3-triazolo[4,5-b]pyrazine] are 1 to 100 nM and 1 to 100 nM.
Consider `N#Cc1cccc(Oc2cnc3nnn(Cc4cccc(-c5ncc(Br)cn5)c4)c3n2)c1` [Compound B6, 3-{3-[3-(5-bromopyrimidin-2-yl)benzyl]-3H-1,2,3-triazolo[4,5-b]pyrazin-5-yloxy}benzonitrile], for which the IC50 on Met kinase [2] and at Met kinase [1] was 1 to 100 nM each time.
For the molecule `Fc1cc(F)cc(Oc2cnc3nnn(Cc4cccc(-c5ncc(Br)cn5)c4)c3n2)c1` [Compound B7, 1-[3-(5-bromopyrimidin-2-yl)benzyl]-6-(3,5-difluorophenoxy)-1H-1,2,3-triazolo[4,5-b]pyrazine], the half-inhibitory concentration (IC50) at Met kinase [2] and at Met kinase [1] was 1 to 100 nM each time.
On to `Oc1cnc(-c2cccc(Cn3nnc4ncc(-c5cc(F)cc(F)c5)nc43)c2)nc1` [Compound B10, 2-{3-[6-(3,5-difluorophenyl)-1,2,3-triazolo[4,5-b]pyrazin-1-ylmethyl]phenyl}-pyrimidin-5-ol], for which the IC50 at Met kinase [2] and at Met kinase [1] was 1 to 100 nM throughout.
As for `CN(C)CCOc1cnc(-c2cccc(Cn3nnc4ncc(-c5cnn(C)c5)nc43)c2)nc1` [Compound B14, dimethyl-[2(2-{3-[6-(1-methyl-1H-pyrazol-4-yl)-1,2,3-triazolo[4,5-b]pyrazin-1-ylmethyl]phenyl}pyrimidin-5-yloxy)ethyl]amine hydrochloride], the 50% inhibitory concentration (IC50) on Met kinase [2] and on Met kinase [1] was 1 to 100 nM each time.
In the case of `Cn1cc(-c2cnc3nnn(Cc4cccc(-c5ncc(OCCCO)cn5)c4)c3n2)cn1` [Compound B15], the concentration for half-maximal inhibition (IC50) on Met kinase [2] and at Met kinase [1] was 1 to 100 nM each time.
With `COCCOc1cnc(-c2cccc(Cn3nnc4ncc(-c5cnn(C)c5)nc43)c2)nc1` [Compound B16], the IC50 on Met kinase [2] and at Met kinase [1] was 1 to 100 nM throughout.
Regarding `CN1CCN(CCOc2cnc(-c3cccc(Cn4nnc5ncc(-c6cnn(C)c6)nc54)c3)nc2)CC1` [Compound B17], the IC50 at Met kinase [2] and at Met kinase [1] was 1 to 100 nM in each case.
On to `Cn1cc(-c2cnc3nnn(Cc4cccc(-c5ncc(OCCCN6CCOCC6)cn5)c4)c3n2)cn1` [Compound B18], for which the IC50 at Met kinase [2] and at Met kinase [1] was 1 to 100 nM each time.
Take `CN1CCN(CCOc2cnc(-c3cccc(Cn4nnc5ncc(-c6cnn(C)c6)nc54)c3)nc2)CC1=O` [Compound B19]: the 50% inhibitory concentration (IC50) at Met kinase [2] and at Met kinase [1] was 1 to 100 nM in each case.
Consider `Cn1cc(-c2cnc3nnn(Cc4cccc(-c5ncc(OCC6CNCCO6)cn5)c4)c3n2)cn1` (stereo not shown) [Compound B20], for which the IC50 at Met kinase [2] and at Met kinase [1] was 1 to 100 nM throughout.
Regarding `N#Cc1cccc(-c2cnc3nnn(Cc4cccc(-c5ncc(-c6cnn(CCN7CCCC7)c6)cn5)c4)c3n2)c1` [Compound B21], the 50% inhibitory concentration (IC50) on Met kinase [2] and at Met kinase [1] was 1 to 100 nM in each case.
Turning to `N#Cc1cccc(-c2cnc3nnn(Cc4cccc(-c5ncc(OCCN6CCNCC6)cn5)c4)c3n2)c1` [Compound B22], the IC50 on Met kinase [2] and at Met kinase [1] was 1 to 100 nM each time.
Take `Fc1cc(F)cc(-c2cnc3nnn(Cc4cccc(-c5ncc(OCCN6CCNCC6)cn5)c4)c3n2)c1` [Compound B23]: the concentration for half-maximal inhibition (IC50) on Met kinase [2] and on Met kinase [1] was 1 to 100 nM throughout.
For the molecule `Fc1cc(F)cc(-c2cnc3nnn(Cc4cccc(-c5ncc(OCC6CCNCC6)cn5)c4)c3n2)c1` [Compound B24], the IC50 on Met kinase [2] and at Met kinase [1] was 1 to 100 nM throughout.
Turning to `COCCn1cc(-c2cnc3nnn(Cc4cccc(-c5ncc(OCCN6CCOCC6)cn5)c4)c3n2)cn1` [Compound B33], the IC50 at Met kinase [2] and on Met kinase [1] was 1 to 100 nM in each case.
As to `OCCn1cc(-c2cnc3nnn(Cc4cccc(-c5ncc(OCCN6CCOCC6)cn5)c4)c3n2)cn1` [Compound B34], the half-maximal inhibitory concentration (IC50) at Met kinase [2] and at Met kinase [1] was 1 to 100 nM throughout.
As to `Clc1ccc2c(c1)nnn2Cc1cccc(-c2ncc(OCCN3CCOCC3)cn2)c1` [Compound B35, 5-Chloro-1-{3-[5-(2-morpholin-4-ylethoxy)pyrimidin-2-yl]benzyl}-1H-benzotriazole], the IC50 at Met kinase [2] is 100 to 10000 nM; at Met kinase [1], > 10000 nM.
In the same order, the values of `O=[N+]([O-])c1ccc(Br)cc1NCc1cccc(-c2ncc(OCCN3CCOCC3)cn2)c1` [Compound B36, (5-bromo-2-nitrophenyl)-{3-[5-(2-morpholin-4-ylethoxy)-pyrimidin-2-yl]benzyl}amine] are 1 to 100 nM and 100 to 10000 nM.
On to `COc1ccc2nnn(Cc3cccc(-c4ncc(OCCCN(C)C)cn4)c3)c2n1` [Compound B37], for which the half-maximal inhibitory concentration (IC50) at Met kinase [2] and on Met kinase [1] was 1 to 100 nM throughout.
